According to paper PMC9889419 (Pharmacological Reports, 2022):
Counter-ions that a name gives are not always drawn.

Legend:
[1] = test system: CYP1A2 (aryl hydrocarbon receptor); test: In vitro metabolic gene induction studies; type: cell-based, human
Method: Anticonvulsant Screening prog ram
Test 28 - In Vitro Metabolic Gene Induction Studies
SolventCode: DMSO Solvent Prep: Unit: uM
Cell line source: Puracyp Molecular 257.7590
DateStarted: O5+eb-2O1O Date Completed: 15+eb-2010 Weig ht:
Reference: Lamb boolc#t! p9.77
lsoform Code: CyplAz Cell line: lAzDRE
Inducffon mechanism: aryl hydrocarbon receptor
Concentration Induction Cell
Fold +/- S.D Viability +/- S.D
0 1 +t- o.cs n 1n +L 2.2o n
Max induction 2 fold @ 200uM
. '^ (calculated): slgnificant decrease in viability at this concentation in vitso.
(§1) (1 picture or pasted object on this page, not shown here)

[2] = test system: organotypic hippocampal slice cultures; test: Neuroprotection primary screen, excitotoxin NMDA; type: cell-based; details: NMDA 10 µM; 10 and 100 µM compound
Excerpt: Gompound 1 : ADD Number: ItSot+ Batct: lE- Date Started:
Compound 2 : ADD Number: Froso Batct: le Date Completed i l|26-M ar -20 1 O […]
Excitotoxin: lNmoa lnsult Duration: la Uouo Solvent:
Primary Screen Results: ffi […]
Al lruuoa rolrr,| A2lr'rrr,tOa r Olrrr,t * --.- A3 lr'rnroa r oprvr + lsaoot+ t oplrl+aesogo iopM
BZ lr.rrr,ron ropr,t , -_-_-- 83 lluoa topt',r * jffi 1 4 t oopM.€sroso 1 oolrM la+eota tooptu*aasoeo roffi […]
The 'Primary screen Experiment" is a qualitative assessment of the ability of a compound to prevent excrtotoxic cell death. organotypic hippocampal slice cultures are treated *ltn r.i-."iivr-o-"spartate (NMDA) or kainic acad (KA) to induce neuronal cell death' Propidium iodide (Pl), a membrane-imper.eant cornpouna, is included in all wells of the culture plate.
Dying cells have compromised *]lT^"Toj*::, ttr. er rnJy oin "" into the cell, intercatate with DNA and fluoresce. Thus, the intensity of the Pl fluorescence is proportional to the amount of cell death in lhe individual itices. ttippocampat slice cullures are treated with the excitotoxin alone, or *i er. inoi"ui"o above, with the excitotoxin and either one -qf]bar-a Investigalional compounds at the concentrations indicated. lf neuroprotectron occurs as a consequence of the added […]
been treated with the excitotoxin alone.
as §1

STZ-treated mice = test: Streptozotocin-induced diabetic neuropathy, von Frey test; type: in vivo; details: for elevation of pain threshold (von Frey): STZ-treated mice
Method: Induction of diabetes. To induce diabetes the mice were injected with a single ip streptozotocin (STZ, Sigma-Aldrich, Germany) dose (200 mg/kg) dissolved in 0.1 N citrate buffer. Blood glucose levels were measured 1 h before and repeatedly 1, 2 and 3 weeks after STZ injection using a blood glucose monitoring system (AccuChek Active, Roche, France). Blood samples (5 µL) for the measurement of glucose concentration were obtained from the mouse tail vein. The animals were defined as diabetic when their blood glucose concentration exceeded 300 mg/dL and only those mice were used as diabetic mice in further tests. The body weight of mice was monitored 1 h before and 21 days after STZ injection.
Assessment of tactile allodynia in STZ-treated mice—von Frey test. Mechanical hyperalgesia was tested as previously described in detail [25] using the electronic von Frey device (Bioseb, France). Briefly, in a quiet room, mice were placed in test compartments on an elevated metal mesh grid and allowed to acclimate for 30 min. After a habituation period each mouse was tested 3 times in the plantar region of hind paw, to obtain baseline values. Subsequently, the mice were pre-treated with the tested compound dissolved in saline at doses 1, 10 and 30 mg/kg. Thirty minutes later the animals were tested again and mean values of mechanical withdrawal threshold were obtained for each mouse.

hNav1.3 sodium channel = biological target: T1, hNav1.3 sodium channel (Homo sapiens, UniProt Q9NY46); test: Nav channel electrophysiology (IonWorks Quattro); type: cell-based
T1 construct: host or cells: CHO cells

hERG = biological target: T2, hERG (Homo sapiens, UniProt Q12809); test: Radioligand binding; details: read-out: % of control specific binding
T2 construct: purchased Eurofins CEREP
Method: Radioligand binding. Radioligand binding assays were performed at Eurofins CEREP (France). The results are expressed as a percent of control specific binding (measured specific binding*100/control specific binding) and as a percent inhibition of control specific binding (100-(measured specific binding*100)/control specific binding) obtained in the presence of the test compounds. The IC50 values (concentration causing a half-maximal inhibition of control specific binding) and Hill coefficients (nH) were determined by non-linear regression analysis of the competition curves generated with mean replicate values using Hill equation curve fitting (Y = D + [A-D]/[1 + (C/C50)^nH], where Y = specific binding, A = left asymptote of the curve, D = right asymptote of the curve, C = compound concentration, C50 = IC50, and nH = slope factor). […] The inhibition constants (Ki) were calculated using the Cheng Prusoff equation (Ki = IC50/[1 + L/KD], where L = concentration of radioligand in the assay, and KD = affinity of the radioligand for the receptor).

Acute toxicity (LD50) = details: in vivo; for LD50 at 24 h: iv; for LD50 at 72 h: po
Method: Acute toxicity. The tested compounds were dissolved in 0.9% saline and administered po and injected into the caudal vein (iv) of mouse or rats at the constant volume of 10 mL/kg and 1 mL/kg, respectively. Each dose was given to six animals.

anaesthetized rat = test: Effect on normal electrocardiogram; type: in vivo, rats;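 note: standard lead II ECG run at 50 mm/s, taken before dosing and at serial times up to 60 min after iv or 90 min after po administration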
Method: The effect on normal electrocardiogram. In vivo electrocardiographic investigations were carried out on using ASPEL ASCARD B5, (Aspel, Poland) apparatus, standard lead II, and paper speed of 50 mm/s. The ECG was recorded just prior to and also 1, 2, 3, 5, 10, 15, 20, 30, 40, 50, and 60 min following the iv or 5, 10, 20, 30, 40, 50, 60, 70, 80, 90 following the po administration of the compound.

T1 sequence (Q9NY46 whole entry): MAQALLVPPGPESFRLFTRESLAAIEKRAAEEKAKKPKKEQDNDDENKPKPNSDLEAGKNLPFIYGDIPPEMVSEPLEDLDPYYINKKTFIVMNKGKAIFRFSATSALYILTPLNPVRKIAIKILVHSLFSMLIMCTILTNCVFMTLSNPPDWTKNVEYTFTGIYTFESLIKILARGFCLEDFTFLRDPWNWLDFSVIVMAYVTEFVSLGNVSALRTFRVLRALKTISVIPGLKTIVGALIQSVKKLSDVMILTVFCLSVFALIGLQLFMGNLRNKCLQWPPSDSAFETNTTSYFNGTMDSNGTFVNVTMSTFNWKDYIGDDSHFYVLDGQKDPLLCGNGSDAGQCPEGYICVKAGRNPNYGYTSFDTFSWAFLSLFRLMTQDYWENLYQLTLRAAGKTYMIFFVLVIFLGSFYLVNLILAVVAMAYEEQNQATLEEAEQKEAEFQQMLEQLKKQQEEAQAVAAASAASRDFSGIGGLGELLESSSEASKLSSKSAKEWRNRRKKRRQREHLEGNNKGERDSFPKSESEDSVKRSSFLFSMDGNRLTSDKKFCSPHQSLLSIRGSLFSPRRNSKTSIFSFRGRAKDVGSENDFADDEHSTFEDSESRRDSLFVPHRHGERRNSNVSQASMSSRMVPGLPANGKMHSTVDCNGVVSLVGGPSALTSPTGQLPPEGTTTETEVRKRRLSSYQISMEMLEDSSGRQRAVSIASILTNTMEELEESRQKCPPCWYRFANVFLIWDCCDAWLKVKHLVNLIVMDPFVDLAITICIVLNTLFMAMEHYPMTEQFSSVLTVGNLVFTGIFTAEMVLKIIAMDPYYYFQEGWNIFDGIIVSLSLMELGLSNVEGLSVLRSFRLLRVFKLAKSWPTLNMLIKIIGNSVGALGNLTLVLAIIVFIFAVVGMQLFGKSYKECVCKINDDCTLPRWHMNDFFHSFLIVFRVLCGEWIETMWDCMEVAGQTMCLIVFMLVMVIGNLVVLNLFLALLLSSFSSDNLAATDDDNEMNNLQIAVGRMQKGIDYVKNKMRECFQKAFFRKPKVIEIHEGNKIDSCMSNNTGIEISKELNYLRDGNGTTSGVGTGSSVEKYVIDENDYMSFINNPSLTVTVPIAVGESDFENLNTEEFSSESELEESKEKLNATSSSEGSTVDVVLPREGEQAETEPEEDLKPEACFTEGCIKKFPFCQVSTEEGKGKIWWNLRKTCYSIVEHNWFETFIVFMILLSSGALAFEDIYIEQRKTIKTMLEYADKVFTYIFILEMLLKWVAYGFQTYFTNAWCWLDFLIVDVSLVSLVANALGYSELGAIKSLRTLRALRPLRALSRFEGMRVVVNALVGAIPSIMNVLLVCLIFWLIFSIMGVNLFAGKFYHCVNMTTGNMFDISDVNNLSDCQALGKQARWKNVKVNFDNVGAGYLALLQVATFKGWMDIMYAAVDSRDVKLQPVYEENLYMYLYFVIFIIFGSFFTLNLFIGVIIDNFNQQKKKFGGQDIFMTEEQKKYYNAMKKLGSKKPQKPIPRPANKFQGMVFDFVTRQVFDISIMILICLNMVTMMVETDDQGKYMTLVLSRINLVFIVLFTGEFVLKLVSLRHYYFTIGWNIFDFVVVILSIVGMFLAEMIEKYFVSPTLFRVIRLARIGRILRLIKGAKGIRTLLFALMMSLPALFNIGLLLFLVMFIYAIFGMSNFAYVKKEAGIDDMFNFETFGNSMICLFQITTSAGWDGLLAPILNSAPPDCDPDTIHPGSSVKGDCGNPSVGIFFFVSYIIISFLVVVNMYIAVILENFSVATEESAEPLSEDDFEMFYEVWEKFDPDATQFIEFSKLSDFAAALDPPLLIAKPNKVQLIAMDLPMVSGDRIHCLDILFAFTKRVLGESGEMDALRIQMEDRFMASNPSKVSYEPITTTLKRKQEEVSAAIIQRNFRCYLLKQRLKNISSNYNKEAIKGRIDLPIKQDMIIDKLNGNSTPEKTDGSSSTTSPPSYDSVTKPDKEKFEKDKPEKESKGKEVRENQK
T2 sequence (Q12809 whole entry): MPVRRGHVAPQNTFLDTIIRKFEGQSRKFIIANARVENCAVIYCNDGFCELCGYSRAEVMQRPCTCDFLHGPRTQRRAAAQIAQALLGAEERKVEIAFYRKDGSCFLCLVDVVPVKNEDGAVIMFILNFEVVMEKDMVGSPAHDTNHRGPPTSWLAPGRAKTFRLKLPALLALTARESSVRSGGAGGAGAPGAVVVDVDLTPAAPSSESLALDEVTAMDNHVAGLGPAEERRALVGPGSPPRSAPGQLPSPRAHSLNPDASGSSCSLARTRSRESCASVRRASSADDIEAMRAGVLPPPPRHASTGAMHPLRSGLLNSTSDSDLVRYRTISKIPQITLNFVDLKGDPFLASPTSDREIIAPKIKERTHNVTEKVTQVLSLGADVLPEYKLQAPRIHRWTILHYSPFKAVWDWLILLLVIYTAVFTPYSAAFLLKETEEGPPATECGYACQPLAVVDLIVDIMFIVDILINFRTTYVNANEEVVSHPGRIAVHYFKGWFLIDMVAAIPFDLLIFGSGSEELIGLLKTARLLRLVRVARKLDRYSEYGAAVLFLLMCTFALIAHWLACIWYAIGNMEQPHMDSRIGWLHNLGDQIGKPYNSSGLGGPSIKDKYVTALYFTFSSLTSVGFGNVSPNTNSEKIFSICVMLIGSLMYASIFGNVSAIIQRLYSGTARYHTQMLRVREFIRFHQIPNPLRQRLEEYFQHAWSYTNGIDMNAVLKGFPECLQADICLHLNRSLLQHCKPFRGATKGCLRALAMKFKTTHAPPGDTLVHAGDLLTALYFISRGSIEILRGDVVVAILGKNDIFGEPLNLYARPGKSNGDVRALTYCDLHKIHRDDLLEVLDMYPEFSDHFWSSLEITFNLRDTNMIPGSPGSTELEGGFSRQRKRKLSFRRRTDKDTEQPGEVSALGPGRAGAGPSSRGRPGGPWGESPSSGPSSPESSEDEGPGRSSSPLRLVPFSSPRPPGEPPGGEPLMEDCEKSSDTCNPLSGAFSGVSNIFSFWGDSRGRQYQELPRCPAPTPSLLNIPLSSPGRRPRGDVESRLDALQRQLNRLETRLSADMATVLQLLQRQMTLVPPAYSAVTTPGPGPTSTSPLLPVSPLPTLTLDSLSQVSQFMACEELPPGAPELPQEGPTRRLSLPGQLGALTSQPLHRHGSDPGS

With `CCC(CO)NCCOc1c(C)cccc1Cl` (stereo not drawn) [Compound 4, R,S-2-((2-(2-chloro-6-methylphenoxy)ethyl)amino)butan-1-ol] the EC50 ([1]; 1A2DRE cell line, read-out: EC50 (calculated)) was 37 µM, the “Max induction (calculated)” value ([1]; @ 200uM) was 2 fold and the “Test Result (neuroprotection)” value [2] was “No Neuroprotection”.
In the case of `CCC(CO)NCCOc1c(C)cccc1Cl` (stereo not drawn) [KM-408, R,S-2-((2-(2-chloro-6-methylphenoxy)ethyl)amino)butan-1-ol hydrochloride], the “elevation of pain threshold (von Frey)” value (STZ-treated mice; 1 mg/kg) is reported as 132%, the “elevation of pain threshold (von Frey)” value (STZ-treated mice; 10 mg/kg) is reported as 125% and the “STZ-induced pain (von Frey): active at” value (STZ-treated mice; mice, ip) is reported as 1 mg/kg. For the same molecule, the IC50 (hNav1.3 sodium channel; 10 Hz) was 13.1 µM, the IC50 (hNav1.3 sodium channel; Inactivated state) was under 10 µM and the IC50 (hNav1.3 sodium channel; Tonic block) was 49.2 µM. For the same molecule, the activity at 100 µM (hERG) was 26.1%, the LD50 at 24 h (Acute toxicity (LD50); mouse, mice) was 19.8 mg/kg and the LD50 at 72 h (Acute toxicity (LD50); mouse, mice) was 246 mg/kg. For the same molecule, the LD50 at 24 h (Acute toxicity (LD50); rat, rats) was 22.6 mg/kg, the LD50 at 72 h (Acute toxicity (LD50); rat, rats) was 670 mg/kg and the PQ (anaesthetized rat; 5 mg/kg iv, 0 min) was 50.5 ± 2.6 ms. The QT (anaesthetized rat; 5 mg/kg iv, 0 min) was 56.8 ± 3.8 ms, the PQ (anaesthetized rat; 5 mg/kg iv, 1 min) was 59.5 ± 5.3 ms and the QT (anaesthetized rat; 5 mg/kg iv, 1 min) was 58.0 ± 3.4 ms. For the same molecule, the PQ (anaesthetized rat; 5 mg/kg iv, 3 min) was 54.8 ± 2.9 ms, the QT (anaesthetized rat; 5 mg/kg iv, 3 min) was 60.0 ± 2.8 ms and the PQ (anaesthetized rat; 5 mg/kg iv, 5 min) was 54.4 ± 2.3 ms. For the same molecule, the QT (anaesthetized rat; 5 mg/kg iv, 5 min) was 56.8 ± 3.9 ms, the PQ (anaesthetized rat; 5 mg/kg iv, 10 min) was 54.0 ± 1.9 ms and the QT (anaesthetized rat; 5 mg/kg iv, 10 min) was 56.2 ± 4.2 ms. For the same molecule, the PQ (anaesthetized rat; 5 mg/kg iv, 15 min) was 54.4 ± 1.9 ms, the QT (anaesthetized rat; 5 mg/kg iv, 15 min) was 55.2 ± 4.1 ms and the PQ (anaesthetized rat; 5 mg/kg iv, 20 min) was 54.4 ± 2.0 ms. The QT (anaesthetized rat; 5 mg/kg iv, 20 min) was 56.0 ± 4.0 ms, the PQ (anaesthetized rat; 5 mg/kg iv, 30 min) was 54.8 ± 1.7 ms and the QT (anaesthetized rat; 5 mg/kg iv, 30 min) was 57.2 ± 3.7 ms. The PQ (anaesthetized rat; 5 mg/kg iv, 40 min) was 53.6 ± 2.2 ms, the QT (anaesthetized rat; 5 mg/kg iv, 40 min) was 57.0 ± 3.7 ms and the PQ (anaesthetized rat; 5 mg/kg iv, 50 min) was 53.6 ± 2.6 ms. It also gave a QT (anaesthetized rat; 5 mg/kg iv, 50 min) of 58.8 ± 3.4 ms, a PQ (anaesthetized rat; 5 mg/kg iv, 60 min) of 53.6 ± 1.5 ms and a QT (anaesthetized rat; 5 mg/kg iv, 60 min) of 56.0 ± 4.0 ms. For the same molecule, the “influence on heart rate or ECG intervals” value (anaesthetized rat; 50 mg/kg po) was “did not influence”, the PQ (anaesthetized rat; 50 mg/kg po, 0 min) was 55.6 ± 1.8 ms and the QT (anaesthetized rat; 50 mg/kg po, 0 min) was 55.2 ± 3.9 ms. It also gave a PQ (anaesthetized rat; 50 mg/kg po, 5 min) of 59.2 ± 1.9 ms, a QT (anaesthetized rat; 50 mg/kg po, 5 min) of 60.0 ± 0.0 ms and a PQ (anaesthetized rat; 50 mg/kg po, 10 min) of 59.6 ± 2.1 ms. For the same molecule, the QT (anaesthetized rat; 50 mg/kg po, 10 min) was 59.2 ± 0.8 ms, the PQ (anaesthetized rat; 50 mg/kg po, 20 min) was 59.0 ± 1.0 ms and the QT (anaesthetized rat; 50 mg/kg po, 20 min) was 58.0 ± 2.0 ms. The PQ (anaesthetized rat; 50 mg/kg po, 30 min) was 57.4 ± 1.2 ms, the QT (anaesthetized rat; 50 mg/kg po, 30 min) was 58.4 ± 1.0 ms and the PQ (anaesthetized rat; 50 mg/kg po, 40 min) was 59.2 ± 1.5 ms. For the same molecule, the QT (anaesthetized rat; 50 mg/kg po, 40 min) was 59.2 ± 0.8 ms, the PQ (anaesthetized rat; 50 mg/kg po, 50 min) was 58.4 ± 1.0 ms and the QT (anaesthetized rat; 50 mg/kg po, 50 min) was 58.8 ± 1.2 ms. The PQ (anaesthetized rat; 50 mg/kg po, 60 min) was 58.4 ± 1.6 ms, the QT (anaesthetized rat; 50 mg/kg po, 60 min) was 58.8 ± 1.2 ms and the PQ (anaesthetized rat; 50 mg/kg po, 70 min) was 59.6 ± 1.0 ms. The QT (anaesthetized rat; 50 mg/kg po, 70 min) was 61.2 ± 4.2 ms, the PQ (anaesthetized rat; 50 mg/kg po, 80 min) was 59.6 ± 0.4 ms and the QT (anaesthetized rat; 50 mg/kg po, 80 min) was 60.0 ± 0.0 ms. The PQ (anaesthetized rat; 50 mg/kg po, 90 min) was 59.6 ± 1.3 ms, the QT (anaesthetized rat; 50 mg/kg po, 90 min) was 60.0 ± 0.0 ms and the PQ (anaesthetized rat; 300 mg/kg po, 0 min) was 51.6 ± 3.6 ms. For the same molecule, the QT (anaesthetized rat; 300 mg/kg po, 0 min) was 58.0 ± 2.0 ms, the PQ (anaesthetized rat; 300 mg/kg po, 5 min) was 51.2 ± 3.4 ms and the QT (anaesthetized rat; 300 mg/kg po, 5 min) was 57.2 ± 2.0 ms. The PQ (anaesthetized rat; 300 mg/kg po, 10 min) was 54.8 ± 2.1 ms, the QT (anaesthetized rat; 300 mg/kg po, 10 min) was 55.6 ± 2.0 ms and the PQ (anaesthetized rat; 300 mg/kg po, 20 min) was 55.2 ± 2.2 ms. The QT (anaesthetized rat; 300 mg/kg po, 20 min) was 58.0 ± 2.0 ms, the PQ (anaesthetized rat; 300 mg/kg po, 30 min) was 55.2 ± 2.2 ms and the QT (anaesthetized rat; 300 mg/kg po, 30 min) was 58.0 ± 2.0 ms. It also gave a PQ (anaesthetized rat; 300 mg/kg po, 40 min) of 55.2 ± 2.1 ms, a QT (anaesthetized rat; 300 mg/kg po, 40 min) of 59.2 ± 0.8 ms and a PQ (anaesthetized rat; 300 mg/kg po, 50 min) of 55.8 ± 2.8 ms. For the same molecule, the QT (anaesthetized rat; 300 mg/kg po, 50 min) was 60.0 ± 0.0 ms, the PQ (anaesthetized rat; 300 mg/kg po, 60 min) was 56.0 ± 2.8 ms and the QT (anaesthetized rat; 300 mg/kg po, 60 min) was 59.2 ± 0.8 ms. It also gave a PQ (anaesthetized rat; 300 mg/kg po, 70 min) of 55.4 ± 2.3 ms, a QT (anaesthetized rat; 300 mg/kg po, 70 min) of 60.0 ± 0.0 ms and a PQ (anaesthetized rat; 300 mg/kg po, 80 min) of 56.0 ± 2.4 ms. For the same molecule, the QT (anaesthetized rat; 300 mg/kg po, 80 min) was 60.0 ± 0.0 ms, the PQ (anaesthetized rat; 300 mg/kg po, 90 min) was 56.0 ± 2.4 ms and the QT (anaesthetized rat; 300 mg/kg po, 90 min) was 59.6 ± 0.4 ms.
